Assay [1] deals with Rho kinase (fused protein of bovine Rho kinase catalyst region and glutathione S-transferase) (Bos taurus, UniProt Q28021). Put plainly: Rho kinase inhibitory activity (phosphorylation of S6 231–239 substrate, γ32P-ATP). It counts as biochemical. As to conditions: concentration inhibiting substrate phosphorylation by 50%. The method, then: This permits the substrate to be labeled with the radioisotope.
Thereafter, the substrate was adsorbed to a filter paper. ATP was washed away with a phosphoric acid solution, and the amount of the phosphorylated substrate was then measured with a liquid scintillation counter.

For assay [2], the system named is spontaneously hypertensive male rats (SHR). Nature of the assay: Antihypertensive activity in spontaneously hypertensive rats. It counts as in vivo. As to conditions: Rattus norvegicus, po, 30 mg/kg oral, mean ± SEM of 3 to 4 SHRs, read-out: Blood pressure depression, %. On the procedure:
This test was carried out as follows. A test compound was dissolved in purified water, or alternatively the test compound was suspended in a 5% aqueous sodium carboxymethylcellulose solution. The solution or the suspension was forcibly administered into the gaster of SHR through an oral probe. The systolic pressure of SHR was measured with a bloodless sphygmometer (BP-98A, Softron Co.) immediately before the administration of the test compound and 3 to 4 hr after the administration of the test compound or 6 to 7 hr after the administration of the test compound. The percentage of blood pressure depression was calculated by the following equation: Antihypertensive activity (%)={(blood pressure before administration of test compound−blood pressure after administration of test compound)/blood pressure before administration of test compound}×100
Each compound was administered at 30 mg/kg, and the antihypertensive activity (%) was expressed in terms of the mean value of 3 to 4 SHRs and SEM (standard error of the mean).
For data with *, the blood pressure was measured 6 to 7 hr after the administration of the test compound, and, for data with no marks, the blood pressure was measured 3 to 4 hr after the administration of the test compound.

Assay [3] relates to Human-derived histiocyte lymphoma (U937/CCR2). Put plainly: Leukocyte migration inhibitory activity (MCP-1 induced migration, CHEMOTAXICELL). It counts as cell-based. Particulars: Homo sapiens, U-937, 1 h, U937/CCR2, MCP-1, 1 hr, read-out: Migration inhibition (%) ± SEM; for inhibition at 30 µM: test compound 30 μM; for inhibition at 3 µM: test compound 3 μM; for inhibition at 0.3 µM: test compound 0.3 μM; for inhibition at 1 µM: test compound 1 μM. On the procedure:
Human-derived histiocyte lymphoma (U937/CCR2), in which mouse-derived CCR2 had been highly expressed, was suspended in a 0.1% BSA-containing RPMI 1640 medium, to which a test compound had been added (5×10^6/ml), and the suspension was incubated for 20 min. A chemical solution (500 μl) (0.1% BSA-containing RPMI 1640 medium DMSO 1%), to which an MCP-1 ligand (1 μM) and the test compound had been added, was added to a 24-well plate. CHEMOTAXICELL was put thereon, and 200 μl of the cell suspension was added to the top layer, followed by migration under 5% carbon dioxide at 37° C. for one hr. The number of cells, which had migrated to the lower chamber, was counted with a particle count analyzer (CDA-500, SYSMEX CORPORATION), and the percentage migration inhibition was calculated by the following equation; Migration inhibition (%)={1−(number of migrated cells in the presence of test compound/number of migrated cells in the absence of test compound)}×100

Assay [4] relates to anti-GBM nephritis model WKY rats. Put plainly: Albuminuria amelioration activity for anti-GBM nephritis model using WKY rats. It counts as in vivo, rat. Particulars: 24 hr urine, control group 840.4 ± 82.2. On the procedure: Anti-GBM antibody produced by immunizing domestic rabbits with a rat-derived GBM fraction was caudointravenously administered to WKY male rats of 9 weeks old to induce nephritis. […] During 24 hr from two weeks after the administration of the antibody, urine was collected, and the protein level of urine was measured to observe albuminuria amelioration activity.

Assay [5] has as its system anti-GBM nephritis model S.D. rats. Put plainly: Albuminuria amelioration activity for anti-GBM nephritis model using S.D. rats. It counts as in vivo, rat. Particulars: oral 30 mg/kg twice daily, urine 0-24 hr after antibody, control group 794.2 ± 113.2. The method, then: Anti-GBM antibody produced by immunizing domestic rabbits with a rat-derived GBM fraction was caudointravenously administered to S.D. male rats of 8 weeks old to induce nephritis. Immediately after the administration of the antibody and six hr after the administration of the antibody, the compound of Example 300 was orally administered at 30 mg/kg. Urine was collected in a period between immediately after the administration of the antibody and 24 hr after the administration of the antibody, and the protein level of urine was measured to observe albuminuria amelioration activity.

The mark [6] stands for this setting: systolic pressure 3 to 4 hr after administration.
The mark [7] stands for this setting: systolic pressure 6 to 7 hr after administration (data with *).

The values below come from patent publication US7217722B2 (Kirin Beer Kabushiki Kaisha, priority 2000, dated 2007).

The term IC50 denotes the concentration at which inhibition is half-maximal.

Like-named read-outs stand apart in the source and are kept apart here.

Sequence of Rho kinase (fused protein of bovine Rho kinase catalyst region and glutathione S-transferase) (Q28021 92-354 limits assumed): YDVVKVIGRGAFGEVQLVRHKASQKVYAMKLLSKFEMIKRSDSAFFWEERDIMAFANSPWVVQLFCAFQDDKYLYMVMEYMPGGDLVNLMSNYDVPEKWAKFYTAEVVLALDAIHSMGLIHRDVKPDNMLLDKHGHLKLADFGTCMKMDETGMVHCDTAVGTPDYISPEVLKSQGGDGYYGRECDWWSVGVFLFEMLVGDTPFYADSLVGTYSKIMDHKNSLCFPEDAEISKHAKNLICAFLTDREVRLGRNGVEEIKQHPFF

In assay [1], `c1ccc(CN2CCCC(Nc3ccc4[nH]ncc4c3)C2)cc1` (centres unmarked) [Example 21] registered an IC50 of 20 nM. Also, the inhibition in vivo at 30 mg/kg in assay [2] (setting [6]) came to 37 ± 2.5%.

In the case of `c1ccc(CN2CCC(Nc3ccc4[nH]ncc4c3)CC2)cc1` [Example 126, N-(1-benzyl-4-piperidyl)-N-(1H-5-indazolyl)-amine], the inhibition at 30 µM in assay [3] came to 49.1 ± 4.6%. Besides, the inhibition in vivo at 30 mg/kg in assay [2] (setting [6]) was found to be 18 ± 3.5%.

`c1cc2[nH]ncc2cc1NC1CCNCC1` [Example 128, N-(1H-5-indazolyl)-N-(4-piperidyl)amine] displayed an IC50 in assay [1] of 287 nM. Also, in assay [3], the inhibition at 3 µM turned out to be 2.9 ± 12.3% and the inhibition at 30 µM turned out to be 45.9 ± 12.3%.

In assay [1], `c1ccc(CN2CCC(Nc3ccc4[nH]ncc4c3)C2)cc1` (centres unmarked) [Example 146, N-(1-benzyltetrahydro-1H-pyrrolyl)-N-(1H-5-indazolyl)amine] gave an IC50 of 32 nM. In assay [3], the inhibition at 3 µM amounted to 45.6 ± 9.5% and the inhibition at 30 µM worked out at 93.9 ± 1.7%.

With `Fc1ccc(CN2CCCC(Nc3ccc4[nH]ncc4c3)C2)cc1` (centres unmarked) [Example 164, N-[1-(4-fluorobenzyl)-3-piperidyl]-N-(1H-5-indazolyl)amine], in assay [1], it took 16 nM to reach half-maximal inhibition (IC50). Also, the inhibition in vivo at 30 mg/kg in assay [2] (setting [6]) was determined as 35 ± 4.7%.

For the compound `O=C(NCCF)C(c1ccccc1)N1CCCC(Nc2ccc3[nH]ncc3c2)C1` (centres unmarked) [Example 227, N1-(2-fluoroethyl)-2-[3-(1H-5-indazolylamino)piperidino]-2-phenylacetamide], the inhibition at 3 µM in assay [3] came to 100.3 ± 0.5%. The inhibition in vivo at 30 mg/kg in assay [2] (setting [6]) came to 22.2 ± 7.4%.

`CC(C)C(c1ccccc1)N1CCCC(Nc2ccc3[nH]ncc3c2)C1` (centres unmarked) [Example 240, N-(1H-5-indazolyl)-N-[1-(2-methyl-1-phenyl-propyl)-3-piperidyl]amine]: in assay [2] (setting [6]), the inhibition in vivo at 30 mg/kg came out at 21.1 ± 6.5%.

As to `CCCN[C@H]1CC[C@@H](Nc2ccc3[nH]ncc3c2)CC1` [Example 243 (syn), N1-(1H-5-Indazolyl)-N4-propyl-1,4-cyclohexanediamine], the inhibition in vivo at 30 mg/kg in assay [2] (setting [6]) amounted to 26.4 ± 5%.

As for `FCCN[C@H]1CC[C@H](Nc2ccc3[nH]ncc3c2)CC1` [Example 246 (anti), N1-(2-Fluoroethyl)-N4-(1H-5-indazolyl)-1,4-cyclohexanediamine], in assay [2] (setting [6]), the inhibition in vivo at 30 mg/kg amounted to 51.4 ± 0.9%.

For the compound `FCCN[C@H]1CC[C@@H](Nc2ccc3[nH]ncc3c2)CC1` [Example 246 (syn), N1-(2-Fluoroethyl)-N4-(1H-5-indazolyl)-1,4-cyclohexanediamine], the inhibition in vivo at 30 mg/kg in assay [2] (setting [6]) stood at 37.2 ± 11.7%.

Regarding `FCCNC1CCC(Nc2ccc3[nH]ncc3c2)CC1` (centres unmarked) [Example 246, N1-(2-fluoroethyl)-N4-(1H-5-indazolyl)-1,4-cyclohexanediamine], in assay [3], the inhibition at 0.3 µM came out at 41.9 ± 15.4%. Also, the “Protein level of urine (mg/kg/day) SEM” value in assay [4] (25 mg/liter together with drinking water for two weeks) is 220.2 ± 17.7 mg/kg/day.

Regarding `c1cc2[nH]ncc2cc1N[C@H]1CC[C@@H](NC2CC2)CC1` [Example 247 (syn), N1-Cyclopropyl-N4-(1H-5-indazolyl)-1,4-cyclohexanediamine], in assay [2] (setting [6]), the inhibition in vivo at 30 mg/kg was 43.3 ± 1.2%.

With `N[C@H]1CC[C@H](Nc2ccc3[nH]ncc3c2)CC1` [Example 248 (anti), N1-(1H-5-Indazolyl)-1,4-cyclohexanediamine], the inhibition in vivo at 30 mg/kg in assay [2] (setting [6]) was 18.8 ± 8%.

`CCCN[C@H]1CC[C@@H](Nc2cccc3cnccc23)CC1` [Example 260 (syn)]: the inhibition at 1 µM in assay [3] is 56.5 ± 14.9%. Further, the inhibition in vivo at 30 mg/kg in assay [2] (setting [6]) is 19.6 ± 10.5%.

Consider `FCCN[C@H]1CC[C@H](Nc2cccc3cnccc23)CC1` [Example 261 (anti), N1-(2-Fluoroethyl)-N4-(5-isoquinolyl)-1,4-cyclohexanediamine], for which, in assay [2] (setting [6]), the inhibition in vivo at 30 mg/kg amounted to 47.3 ± 3.6%.

`FCCN[C@H]1CC[C@@H](Nc2cccc3cnccc23)CC1` [Example 261 (syn), N1-(2-Fluoroethyl)-N4-(5-isoquinolyl)-1,4-cyclohexanediamine]: in assay [3], the inhibition at 0.3 µM stood at 24.2 ± 3.9% and the inhibition at 1 µM amounted to 59.4 ± 10.4%. Also, the inhibition in vivo at 30 mg/kg in assay [2] (setting [6]) is 46.4 ± 4.8%.

`FC(F)(F)CCCN1CCCC(Nc2cccc3cnccc23)C1` (centres unmarked) [Example 273, N-(5-isoquinolyl)-N-[1-(4,4,4-trifluorobutyl)-3-piperidyl]amine]: the inhibition in vivo at 30 mg/kg in assay [2] (setting [6]) was determined as 30.4 ± 7.3%.

As to `CCCN1CCC(Nc2ccc3[nH]ncc3c2)CC1` [Example 286, N-(1H-5-indazolyl)-N-(1-propyl-4-piperidyl)-amine], the inhibition in vivo at 30 mg/kg in assay [2] (setting [6]) stood at 23.6 ± 8.6%.

For the compound `c1cc2[nH]ncc2cc1NC1CCN(CC2CC2)CC1` [Example 287, N-[1-(cyclopropylmethyl)-4-piperidyl]-N-(1H-5-indazolyl)amine], the inhibition in vivo at 30 mg/kg in assay [2] (setting [6]) worked out at 24.4 ± 6.8%.

Regarding `FCCCN1CCC(Nc2ccc3[nH]ncc3c2)CC1` [Example 289, N-[1-(3-fluoropropyl)-4-piperidyl]-N-(1H-5-indazolyl)amine], in assay [2] (setting [6]), the inhibition in vivo at 30 mg/kg was 30.8 ± 5.7%.

For the compound `FC(F)(F)CCN1CCC(Nc2ccc3[nH]ncc3c2)CC1` [Example 290, N-(1H-5-indazolyl)-N-[1-(3,3,3-trifluoropropyl)-4-piperidyl]amine], in assay [2] (setting [6]), the inhibition in vivo at 30 mg/kg amounted to 17.2 ± 2.9%.

With `FC(F)(F)c1ccc(CN2CCCC(Nc3ccc4[nH]ncc4c3)C2)cc1` (centres unmarked) [Example 298, N-(1H-5-indazolyl)-N-{1-[4-(trifluoromethyl)-benzyl]-3-piperidyl}amine], in assay [3], the inhibition at 0.3 µM was determined as 15.7 ± 9.9%. Further, in assay [2] (setting [7]), the inhibition in vivo at 30 mg/kg is 18.9 ± 3.1%.

In the case of `Fc1ccc(CN2CCCC(Nc3ccc4[nH]ncc4c3)C2)cc1F` (centres unmarked) [Example 300, N-[1-(3,4-difluorobenzyl)-3-piperidyl)-N-(1H-5-indazolyl)amine], the inhibition at 0.3 µM in assay [3] is 81.9 ± 11.9%. Moreover, in assay [4] (oral 30 mg/kg twice daily for two weeks), the “Protein level of urine (mg/kg/day) SEM” value was 602.2 ± 47.3 mg/kg/day. Besides, in assay [2] (setting [7]), the inhibition in vivo at 30 mg/kg came out at 24.1 ± 3.8%. The “Protein level of urine (mg/kg/day) ± SEM” value in assay [5] is given as 437.1 ± 95.9 mg/kg/day.

For `CCCN1CCC(Nc2cccc3cnccc23)CC1` [Example 318, N-(5-isoquinolyl)-N-(1-propyl-4-piperidyl)-amine], in assay [2] (setting [6]), the inhibition in vivo at 30 mg/kg is 22.7 ± 5.1%.

In the case of `FCCCN1CCC(Nc2cccc3cnccc23)CC1` [Example 322, N-[1-(3-fluoropropyl)-4-piperidyl]-N-(5-isoquinolyl)amine], the inhibition in vivo at 30 mg/kg in assay [2] (setting [6]) was found to be 41.4 ± 7.4%.
